From US4985360A (priority 1987, dated 1991)

system: bilirubin oxidase; experiment: Substrate specificity by oxygen consumption rate (electrode oxygen meter); format: biochemical, Penicillium janthinellum; settings: 0.1 mM substrate, 0.1 mM HgCl2 added
Method: The intrinsic substrate specificity for various substrates was estimated based upon the oxygen consumption rate using an electrode oxygen meter. The measurements were effected under an addition of HgCl2 to the substrate solution up to a concentration of 0.1 mM. For the measurements, 0.1 mM solution of the substrate with addition of 0.1 ml of the enzyme solution as employed in the determination of the enzyme activity was used. […] Thus, it was confirmed that the bilirubin oxidase according to the present invention has a very high specificity to bilirubin.

Compound	Relative Activity (substrate specificity)
Cc1c(N)c(=O)n(-c2ccccc2)n1C [4-Aminoantipyrin]	0%
C=CC1=C(C)/C(=C/c2[nH]c(Cc3[nH]c(/C=C4\NC(=O)C(C)=C4C=C)c(C)c3CCC(=O)O)c(CCC(=O)O)c2C)NC1=O [Bilirubin]	100%
C=CC1=C(C)/C(=C/C2=NC(=C\c3[nH]c(/C=C4\NC(=O)C(C)=C4C=C)c(C)c3CCC(=O)O)/C(CCC(=O)O)=C2C)NC1=O [Biliverdin]	0%
Oc1ccccc1O [Catechol]	0%
CC1=C(CCC(=O)O)c2cc3[nH]c(cc4nc(cc5[nH]c(cc1n2)c(C)c5C(C)O)C(C)=C4C(C)O)c(C)c3CCC(=O)O (stereo not shown) [Hematoporphyrin]	0%
Oc1ccc(O)cc1 [Hydroquinone]	0%
Oc1ccccc1 [Phenol]	0%
Oc1cccc(O)c1O [Pyrogallol]	0%
Chlorophyll	0%
Chlorophyllin	0%
Hemin	0%
Hemoglobin	0%

system: bilirubin oxidase; experiment: not given; format: biochemical, Penicillium janthinellum; settings: additive (metal ion, EDTA) 1 mM; activity without addition = 100; 10 min

Compound	Relative Acty. (relative enzyme activity with additive)
[Cl][Al]([Cl])[Cl] [AlCl3]	88%
[Ba+2].[Cl-].[Cl-] [BaCl2]	49%
[Ca+2].[Cl-].[Cl-] [CaCl2]	31%
[Cl-].[Cl-].[Co+2] [CoCl2]	0%
[Cl-].[Cs+] [CsCl]	139%
[Cl][Cu][Cl] [CuCL2]	0%
[Cl][Fe]([Cl])[Cl] [FeCl3]	113%
[Cl-].[K+] [KCl]	106%
[Cl-].[Cl-].[Mg+2] [MgCl2]	96%
[Cl][Mn][Cl] [MnCl2]	10%
Cl.N [NH4 Cl]	108%
[N-]=[N+]=[N-].[Na+] [NaN3]	106%
[Cl][Ni][Cl] [NiCl2]	43%
[Cl][Pb][Cl] [PbCl2]	377%
[Cl-].[Cl-].[Zn+2] [ZnCl2]	60%
Triazole	105%

same assay, conditions: bilirubin oxidase, 10 min

Compound	Relative Acty. (relative enzyme activity with additive)
CCCCCCCCCCCCCCCC[N+](C)(C)C.[Br-] [CTMB, Cetyl trimethylammonium bromide]	277%
CCCCCCCCCCCCCCCC[N+](C)(C)C.[Cl-] [CTMC, Cetyl trimethylammonium chloride]	316%

same assay, conditions: bilirubin oxidase, 10 min, 1000 µM

Compound	Relative Acty. (relative enzyme activity with additive)
O=C(O)CN(CCN(CC(=O)O)CC(=O)O)CC(=O)O [EDTA]	102%
NO [Hydroxylamine]	108%
[Cl-].[Li+] [LiCl]	112%
[Cl-].[Na+] [NaCl]	106%

same assay, conditions: metal ion 1 mM or surfactant 0.05%

Compound	Effect of additive on enzyme activity (in words)
CCCCCCCCCCCCCCCC[N+](C)(C)C.[Cl-] [CTMC, Cetyl trimethylammonium chloride]	accelerated considerably
[Cl-].[Cl-].[Co+2] [CoCl2]	inhibited
[Cl][Cu][Cl] [CuCL2]	inhibited
[Cl][Hg][Cl] [HgCL2]	accelerated considerably
[Cl][Pb][Cl] [PbCl2]	accelerated considerably

system: bilirubin oxidase; experiment: Km value determination; format: biochemical, Penicillium janthinellum; settings: 0.1 ml enzyme solution, 2-20 mg bilirubin substrate solutions

Compound	Km
C=CC1=C(C)/C(=C/c2[nH]c(Cc3[nH]c(/C=C4\NC(=O)C(C)=C4C=C)c(C)c3CCC(=O)O)c(CCC(=O)O)c2C)NC1=O [Bilirubin]	110 µM
